Results from patent publication US20230293475A1, “METHODS OF PROVIDING SO[…] TO SUBJECTS WITH IMPAIRED RENAL FUNCTION” (Axsome Malta Ltd., priority 2020, published 2023).
Like-named read-outs stand apart in the source and are kept apart here.

Assay: Phase 1 single-dose study, plasma PK of solriamfetol by level of renal function
Assay type: in vivo, human
Details: for AUCt, percent ratio (90% confidence interval) of geometric mean relative to Group 1 / AUC∞, percent ratio (90% confidence interval) of geometric mean relative to Group 1 / Cmax, percent ratio (90% confidence interval) of geometric mean relative to Group 1 / AUC(0-t) / AUC(0-inf) / Cmax / Vd/F / Tmax / half-life: single 75-mg dose; for AUC(0-t) / AUC(0-inf) / Cmax / Vd/F / Tmax / half-life: both sexes, human, plasma, oral, 75 mg; for Vd/F: read-out: Vd/F, mean ± SD (%CV); for Tmax: read-out: tmax, median (min, max); for half-life: read-out: t½, mean ± SD (%CV) (converted)
Protocol: In healthy subjects with normal renal function, solriamfetol HCl is renally excreted ~90% unchanged within 48 hours of administration. Thus, renal impairment, as well as hemodialysis in individuals with end-stage renal disease (ESRD), could affect the PK of solriamfetol HCl. To ascertain the precise impact of renal impairment and hemodialysis on pharmacokinetics and safety of solriamfetol RCl, a Phase 1, parallel-group, open-label, single-dose study was conducted at 2 U.S. sites. The protocol was approved by the IntegReview Institutional Review Board (Austin, Texas), and the study was conducted in compliance with the protocol, the Guideline for Good Clinical Practice E6; the US Code of Federal Regulations pertaining to conduct and reporting of clinical studies; the Clinical Trials Directive of the European Medicines Agency (Directive 2001/20/EC); and the Declaration of Helsinki. Written informed consent was obtained from each subject before enrollment in the study and before performance of any study-related procedure. See, also, Zomorodi K, Chen D, Lee L, Lasseter K, Marbury T. An Open-Label, Single-Dose, Phase 1 Study of the Pharmacokinetics and Safety of JZP-110 in Subjects With Normal or Impaired Renal Function and With End-Stage Renal Disease Requiring Hemodialysis [abstract]. Sleep. 2017;40 (suppl):A382-383.
Eligible participants were men and non-pregnant, non-lactating women between the ages of 18 and 80 years, with a body mass index (BMI) ≤ 35 kg/m^2. Women of childbearing potential were required to have used a medically accepted method of birth control for at least 2 months prior to the first dose of study drug, with continued use throughout the study period and for 30 days after study completion.
Eligible participants were assigned to 1 of 5 groups according to renal disease status as measured by the estimated glomerular filtration rate (eGFR) on the day prior to dosing, calculated using the Modification in Diet in Renal Disease equation. Group 1 consisted of healthy participants with normal renal function (eGFR ≥ 90 mL/min/1.73 m^2) and served as the control group. Groups 2, 3, and 4 had mild, moderate, and severe renal impairment based on eGFRs of 60-89, 30-59, and < 30 mL/min/1.73 m^2, respectively. Group 5 consisted of participants with ESRD who required ≥ 3 hemodialysis treatments per week for the preceding 3 months. […] Group 1 was enrolled last to facilitate matching the mean age, BMI, and sex distribution of Groups 2-5.
Groups 1-4 received one dose of solriamfetol HCl (89.3 mg; equivalent to 75-mg solriamfetol) on day 1; Group 5 received one dose equivalent to 75-mg dose on day 1 followed by 4-hour hemodialysis (designated Group 5.2), and one dose equivalent to 75-mg solriamfetol on day 8 without hemodialysis (designated Group 5.1). All doses were administered on an empty stomach following an overnight fast except for participants in Group 5, who received a standardized snack on day 7 and breakfast early on day 8 before starting an 8-hour fast. Participants remained fasting for 4 hours after administration, with water allowed except for 1 hour before and after dosing.
Serial blood samples of approximately 4 mL were collected within 30 minutes prior to dosing and at 0.5, 1, 1.5, 2, 2.5, 3, 4, 6, 8, 10, 12, 24, 36, and 48 hours post-dose in Groups 1-3, with continued sampling at 60 and 72 hours post-dose in Groups 4 and 5. All blood samples were collected into labeled K2EDTA tubes by direct venipuncture or indwelling catheter and kept on ice until the samples were centrifuged within 30 minutes of collection at approximately 2500 rpm (1315 × g) at 4° C. for 10 minutes. The plasma was transferred into polypropylene tubes for freezing and storage at -70° C. until analysis.
Bioanalytical analyses were performed by a central laboratory (KCAS, LLC, Shawnee, Kansas) using validated proprietary methods that included extraction/derivatization and liquid chromatography-tandem mass spectrometry (LC-MS/MS). […]

[1] = Group 3 moderate renal impairment
[2] = Group 4 severe renal impairment
[3] = Group 5.1 ESRD without hemodialysis
[4] = Group 5.2 ESRD with hemodialysis
[5] = Group 5.1 ESRD without hemodialysis, n=3
[6] = Group 5.2 ESRD with hemodialysis, n=6

NC(=O)OC[C@H](N)Cc1ccccc1 [solriamfetol, [R]-2-amino-3-phenylpropylcarbamate]
Cmax, lower relative to normal renal function (ESRD requiring hemodialysis): ≤ 19% | overall exposure, fold increase relative to normal renal function (ESRD requiring hemodialysis): ≥ 4 fold | t½, fold longer relative to normal renal function (ESRD requiring hemodialysis): ≥ 13 fold | Cmax, higher versus Group 1 (Group 2 mild renal impairment): approximately 6% | total exposure (AUC∞), higher relative to Group 1 (Group 2 mild renal impairment): 53% | AUCt, percent ratio (90% confidence interval) of geometric mean relative to Group 1 (Group 2 mild renal impairment): 158.3 (97.5, 256.9) % | AUC∞, percent ratio (90% confidence interval) of geometric mean relative to Group 1 (Group 2 mild renal impairment): 152.9 (92.9, 251.7) % | Cmax, percent ratio (90% confidence interval) of geometric mean relative to Group 1 (Group 2 mild renal impairment): 105.9 (80.6, 139.0) % | Cmax, higher versus Group 1 [1]: ~4% | total exposure (AUC∞), higher relative to Group 1 [1]: 129% | AUCt, percent ratio (90% confidence interval) of geometric mean relative to Group 1 [1]: 219.2 (133.7, 359.6) % | AUC∞, percent ratio (90% confidence interval) of geometric mean relative to Group 1 [1]: 229.2 (135.6, 387.4) % | Cmax, percent ratio (90% confidence interval) of geometric mean relative to Group 1 [1]: 104.3 (78.4, 138.9) % | Cmax, higher versus Group 1 [2]: ~11% | total exposure (AUC∞), higher relative to Group 1 [2]: 339% | AUCt, percent ratio (90% confidence interval) of geometric mean relative to Group 1 [2]: 380.4 (208.4, 694.4) % | AUC∞, percent ratio (90% confidence interval) of geometric mean relative to Group 1 [2]: 438.6 (217.3, 885.3) % | Cmax, percent ratio (90% confidence interval) of geometric mean relative to Group 1 [2]: 110.5 (81.1, 150.6) % | overall exposure (AUCt), fold higher relative to Group 1 (Group 5.1 ESRD without dialysis on day 8): approximately 5 fold | Cmax, lower versus Group 1 [3]: approximately 3% | exposure, higher versus Group 1 [3]: approximately 518% | AUCt, percent ratio (90% confidence interval) of geometric mean relative to Group 1 [3]: 617.8 (385.3, 990.8) % | AUC∞, percent ratio (90% confidence interval) of geometric mean relative to Group 1 [3]: 1290.6 (542.78, 3068.5) % | Cmax, percent ratio (90% confidence interval) of geometric mean relative to Group 1 [3]: 97.2 (76.1, 124.1) % | overall exposure (AUCt), fold higher relative to Group 1 (Group 5.2 ESRD with dialysis on day 1): about 4 fold | Cmax, lower versus Group 1 [4]: ~19% | exposure, higher versus Group 1 [4]: ~357% | AUCt, percent ratio (90% confidence interval) of geometric mean relative to Group 1 [4]: 457.2 (296.6, 704.9) % | AUC∞, percent ratio (90% confidence interval) of geometric mean relative to Group 1 [4]: 1496.5 (748.7, 2991.2) % | Cmax, percent ratio (90% confidence interval) of geometric mean relative to Group 1 [4]: 80.9 (63.4,103.1) % | AUC(0-t) (Group 1 normal renal function, over 48 h, read-out: AUCt, mean ± SD (%CV)): 4850 ± 3450 ng·h/mL | AUC(0-t) (Group 1 normal renal function, over 48 hours, read-out: AUCt, geometric LS mean (converted)): 4090 ng·h/mL | AUC(0-inf) (Group 1 normal renal function, read-out: AUC∞, geometric LS mean): 4360 ng·h/mL | AUC(0-inf) (Group 1 normal renal function, read-out: AUC∞, mean ± SD (%CV)): 5270 ± 4100 ng·h/mL | Cmax (Group 1 normal renal function, read-out: Cmax, geometric LS mean): 482 ng/mL | Cmax (Group 1 normal renal function, read-out: Cmax, mean ± SD (%CV)): 499 ng/mL | Vd/F (Group 1 normal renal function): 164 L | Tmax (Group 1 normal renal function): 1.3 h | half-life (Group 1 normal renal function): 7.6 ± 5.1 h | AUC(0-t) (Group 2 mild renal impairment, over 48 h, read-out: AUCt, mean ± SD (%CV)): 6610 ng·h/mL | AUC(0-t) (Group 2 mild renal impairment, over 48 hours, read-out: AUCt, geometric LS mean (converted)): 6470 ng·h/mL | AUC(0-inf) (Group 2 mild renal impairment, read-out: AUC∞, geometric LS mean): 6670 ng·h/mL | AUC(0-inf) (Group 2 mild renal impairment, read-out: AUC∞, mean ± SD (%CV)): 6840 ng·h/mL | Cmax (Group 2 mild renal impairment, read-out: Cmax, geometric LS mean): 510 ng/mL | Cmax (Group 2 mild renal impairment, read-out: Cmax, mean ± SD (%CV)): 522 ng/mL | Vd/F (Group 2 mild renal impairment): 147 L | Tmax (Group 2 mild renal impairment): 1.5 h | half-life (Group 2 mild renal impairment): 9.1 ± 1.6 h | AUC(0-t) (Group 3 moderate renal impairment, over 48 h, read-out: AUCt, mean ± SD (%CV)): 9230 ng·h/mL | AUC(0-t) (Group 3 moderate renal impairment, over 48 hours, read-out: AUCt, geometric LS mean (converted)): 8960 ng·h/mL | AUC(0-inf) (Group 3 moderate renal impairment, read-out: AUC∞, geometric LS mean): 10000 ng·h/mL | AUC(0-inf) (Group 3 moderate renal impairment, read-out: AUC∞, mean ± SD (%CV)): 10500 ng·h/mL | Cmax (Group 3 moderate renal impairment, read-out: Cmax, geometric LS mean): 503 ng/mL | Cmax (Group 3 moderate renal impairment, read-out: Cmax, mean ± SD (%CV)): 517 ng/mL | Vd/F [1]: 152 L | Tmax [1]: 1.5 h | half-life [1]: 14.3 ± 4.5 h | AUC(0-t) (Group 4 severe renal impairment, over 72 hours, read-out: AUCt, geometric LS mean (converted)): 15500 ng·h/mL | AUC(0-inf) (Group 4 severe renal impairment, read-out: AUC∞, geometric LS mean): 19100 ng·h/mL | AUC(0-inf) (Group 4 severe renal impairment, read-out: AUC∞, mean ± SD (%CV)): 23600 ng·h/mL | Cmax (Group 4 severe renal impairment, read-out: Cmax, geometric LS mean): 533 ng/mL | Cmax (Group 4 severe renal impairment, read-out: Cmax, mean ± SD (%CV)): 553 ng/mL | Vd/F [2]: 157 L | Tmax [2]: 2 h | half-life [2]: 29.6 ± 14.4 h | AUC(0-inf) (Group 5.1 ESRD without hemodialysis, n=3, read-out: AUC∞, geometric LS mean): 56300 ng·h/mL | Vd/F [5]: 154 L | half-life [5]: 100 h | AUC(0-t) (Group 5.1 ESRD without hemodialysis, over 72 hours, read-out: AUCt, geometric LS mean (converted)): 25300 ng·h/mL | Cmax (Group 5.1 ESRD without hemodialysis, read-out: Cmax, geometric LS mean): 469 ng/mL | Cmax (Group 5.1 ESRD without hemodialysis, read-out: Cmax, mean ± SD (%CV)): 474 ng/mL | Tmax [3]: 3.3 h | AUC(0-inf) (Group 5.2 ESRD with hemodialysis, n=6, read-out: AUC∞, geometric LS mean): 65300 ng·h/mL | Vd/F [6]: 231 L | half-life [6]: 165 h | AUC(0-t) (Group 5.2 ESRD with hemodialysis, over 72 hours, read-out: AUCt, geometric LS mean (converted)): 18700 ng·h/mL | Cmax (Group 5.2 ESRD with hemodialysis, read-out: Cmax, geometric LS mean): 390 ng/mL | Cmax (Group 5.2 ESRD with hemodialysis, read-out: Cmax, mean ± SD (%CV)): 396 ng/mL | Tmax [4]: 1.5 h | AUC0-inf, fold compared with normal renal function (mild renal impairment): ~1.53 fold | t½, fold increase compared with normal renal function (mild renal impairment): approximately 1.2 fold | AUC0-inf, fold compared with normal renal function (moderate renal impairment): ~2.29 fold | t½, fold increase compared with normal renal function (moderate renal impairment): ~1.9 fold | AUC0-inf, fold compared with normal renal function (severe renal impairment): ~4.39 fold | t½, fold increase compared with normal renal function (severe renal impairment): ~3.9 fold
